Results taken from patent publication US8962596B2 (Array BioPharma Inc., priority 2010, dated 2015).

What was measured:
Assay type in all cases: biochemical
[1] = biological target: T1, JAK1 (Homo sapiens, UniProt P23458); test: JAK1 Inhibition Assay (Omnia kinase fluorescence peptide substrate assay); details: averaged IC50 ranges; assay of Example B; 40 μM (Km app) or 1 mM ATP, 15 nM JAK1
T1 construct: purchased Invitrogen Corporation, Carlsbad, Calif; PV4775
Text: (§1) The assays described in Examples A, B, C and D for the determination of Tyk2, JAK1, JAK2 and JAK3 kinase activity, respectively, utilized the Omnia® Kinase fluorescence peptide substrate-based technology (Invitrogen). The specific components of the assay mixture are described in Examples A, B, C and D. In these assays, Mg^2+ is chelated upon phosphorylation of the Omnia peptide by the kinase to form a bridge between the chelation-enhanced fluorophore Sox and the phosphate, resulting in an increase in fluorescence emission at 485 nm when excited at […]. The reactions were therefore read at excitation 360 nm and emission was measured at 485 nm every 50 seconds for 45 minutes using a PerkinElmer EnVision Multilabel Plate Reader.
(§2) The final buffer conditions for Tyk2, JAK1, JAK2, and JAK3 assays were as follows: 25 mM HEPES, pH 7.4, 10 mM MgCl2, 0.01% Triton X-100 and 1 mM DTT.
(§3) Compounds were prepared at 50× the final concentration in DMSO by conducting 3-fold serial dilutions from a 500-μM intermediate dilution to give a 10-point dosing curve having a high dose of 10 μM. Two-μL aliquots of these were transferred to a fresh plate for a ten-fold intermediate dilution with assay buffer. Five-μL aliquots of the diluted compounds were then transferred to 20-μL of assay mixtures described in Examples A, B, C and D for a final concentration of DMSO of 2%. A standard or reference compound was typically included on each assay plate to validate that plate. For each plate, percent of control (POC) values were calculated for each well according to the following equation:
(§4) where Xmax=Average Uninhibited Controls • Xmin=Average Background IC50's were estimated from the POC's using a standard 4-parameter logistic model:
(§5) where • A=Minimum Y (Bottom Asymptote) • B=Maximum Y (Top Asymptote) • C=EC50 • D=Slope Factor • X=Compound Concentration (nM) • Y=POC
(§6) The IC50 is defined as the concentration of inhibitor at which the POC equals 50 for the fitted curve.
Compounds of Formula I were screened for their ability to inhibit JAK1 using the general enzyme inhibition assay method, in which the assay mixture contained 40 μM (Km app) or 1 mM ATP, 8 μM Omnia® Y12 peptide (Catalog #IVGN KPZ3121C; Invitrogen Corporation, Carlsbad, Calif.) and 15 nM JAK1 in a total volume of 20 μL. JAK1 was purchased from Invitrogen Corporation, Carlsbad, Calif. (catalog #IVGN PV4775).

[2] = biological target: T2, Human Tyk2 kinase domain (Homo sapiens, UniProt P29597); test: Tyk2 Inhibition Assay (Omnia kinase fluorescence peptide substrate assay); details: averaged IC50 ranges; assay of Example A; 10 μM (Km app) or 1 mM ATP, 2 nM Tyk2
T2 construct: comprising amino acids 886 to 1187 with 10 additional histidine residues; 10xHis (histidine tag) (C, cleaved yes); made in house
T2 sequence (P29597 886-1187): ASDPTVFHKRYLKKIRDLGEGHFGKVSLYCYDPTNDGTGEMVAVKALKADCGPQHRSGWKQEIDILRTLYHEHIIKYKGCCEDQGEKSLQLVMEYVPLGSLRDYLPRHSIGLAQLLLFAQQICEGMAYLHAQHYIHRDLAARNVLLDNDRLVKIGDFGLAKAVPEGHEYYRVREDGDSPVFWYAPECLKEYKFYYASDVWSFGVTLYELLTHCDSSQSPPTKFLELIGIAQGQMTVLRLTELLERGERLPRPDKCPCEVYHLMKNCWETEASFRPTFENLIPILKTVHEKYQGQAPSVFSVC
Text: as §1, §2, §3, §4, §5, §6
Compounds of Formula I were screened for their ability to inhibit Tyk2 using the general enzyme inhibition assay method, in which the assay mixture contained 10 μM (Km app) or 1 mM ATP, 8 μM Omnia® Y12 peptide (Catalog #IVGN KPZ3121C; Invitrogen Corporation, Carlsbad, Calif.) and 2 nM Tyk2 in a total volume of 20 μL. Human Tyk2 kinase domain, comprising amino acids 886 to 1187 with 10 additional histidine residues (histidine tag) on the carboxy terminus, was expressed and purified from bacculovirus in-house at Array BioPharma Inc. (Boulder, Colo.). The histidine tag was cleaved after purification using standard conditions.

[3] = biological target: T3, JAK3 (Homo sapiens, UniProt P52333); test: JAK3 Inhibition Assay (Omnia kinase fluorescence peptide substrate assay); details: averaged IC50 ranges; assay of Example D; 10 μM (Km app) or 1 mM ATP, 2.5 nM JAK3
T3 construct: purchased Invitrogen Corporation, Carlsbad, Calif; PV4080
T3 sequence (P52333 1-1124): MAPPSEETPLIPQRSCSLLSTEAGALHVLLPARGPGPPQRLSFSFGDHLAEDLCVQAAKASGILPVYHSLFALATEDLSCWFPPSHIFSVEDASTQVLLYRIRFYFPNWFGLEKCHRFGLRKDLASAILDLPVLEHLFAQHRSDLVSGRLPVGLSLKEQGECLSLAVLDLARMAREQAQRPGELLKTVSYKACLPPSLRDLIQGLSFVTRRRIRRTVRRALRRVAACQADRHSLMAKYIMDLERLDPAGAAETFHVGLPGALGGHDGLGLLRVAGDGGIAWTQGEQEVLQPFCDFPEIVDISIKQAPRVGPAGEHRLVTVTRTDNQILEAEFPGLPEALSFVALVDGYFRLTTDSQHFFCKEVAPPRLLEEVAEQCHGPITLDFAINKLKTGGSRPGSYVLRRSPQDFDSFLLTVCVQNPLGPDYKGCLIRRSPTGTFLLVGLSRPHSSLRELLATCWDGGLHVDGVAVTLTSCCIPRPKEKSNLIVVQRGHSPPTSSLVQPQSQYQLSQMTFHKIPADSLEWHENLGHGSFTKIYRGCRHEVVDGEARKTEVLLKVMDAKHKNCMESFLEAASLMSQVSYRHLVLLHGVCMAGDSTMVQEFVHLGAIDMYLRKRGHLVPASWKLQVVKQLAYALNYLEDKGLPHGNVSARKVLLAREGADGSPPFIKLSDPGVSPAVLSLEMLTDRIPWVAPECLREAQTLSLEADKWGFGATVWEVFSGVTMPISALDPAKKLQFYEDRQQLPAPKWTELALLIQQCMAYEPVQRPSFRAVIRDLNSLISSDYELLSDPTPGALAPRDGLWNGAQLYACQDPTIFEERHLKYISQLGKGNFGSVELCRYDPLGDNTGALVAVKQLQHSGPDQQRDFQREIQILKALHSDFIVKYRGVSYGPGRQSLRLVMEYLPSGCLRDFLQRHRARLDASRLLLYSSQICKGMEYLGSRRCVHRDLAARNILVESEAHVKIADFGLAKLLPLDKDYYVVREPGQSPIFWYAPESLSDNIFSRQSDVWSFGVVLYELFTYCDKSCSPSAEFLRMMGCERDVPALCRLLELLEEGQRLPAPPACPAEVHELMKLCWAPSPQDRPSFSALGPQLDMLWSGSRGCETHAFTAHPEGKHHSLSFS
Text: as §1, §2, §3, §4, §5, §6
(§7) Compounds of Formula I were screened for their ability to inhibit JAK3 using the general enzyme inhibition assay method, in which the assay mixture contained 10 μM (Km app) or 1 mM ATP, 10 μM Omnia® Y7 peptide (Catalog #IVGN KNZ3071C, Invitrogen Corporation, Carlsbad, Calif.) and 2.5 nM JAK3 in a total volume of 20 μL. JAK3 was purchased from Invitrogen Corporation, Carlsbad, Calif. (catalog #IVGN PV4080).

[4] = biological target: T4, JAK2 (Homo sapiens, UniProt O60674); test: JAK2 Inhibition Assay (Omnia kinase fluorescence peptide substrate assay); details: averaged IC50 ranges; assay of Example C; 25 μM (Km app) or 1 mM ATP, 5 nM JAK2
T4 construct: purchased Invitrogen Corporation, Carlsbad, Calif; PV4288
Text: as §1, §2, §3, §4, §5, §6
as §7, with “inhibit JAK2” for “inhibit JAK3”, “contained 25” for “contained 10”, “and 5” for “and 2.5”, “nM JAK2” for “nM JAK3”, “μL. JAK2” for “μL. JAK3”, “#IVGN PV4288).” for “#IVGN PV4080).”

T4 sequence (O60674 whole entry): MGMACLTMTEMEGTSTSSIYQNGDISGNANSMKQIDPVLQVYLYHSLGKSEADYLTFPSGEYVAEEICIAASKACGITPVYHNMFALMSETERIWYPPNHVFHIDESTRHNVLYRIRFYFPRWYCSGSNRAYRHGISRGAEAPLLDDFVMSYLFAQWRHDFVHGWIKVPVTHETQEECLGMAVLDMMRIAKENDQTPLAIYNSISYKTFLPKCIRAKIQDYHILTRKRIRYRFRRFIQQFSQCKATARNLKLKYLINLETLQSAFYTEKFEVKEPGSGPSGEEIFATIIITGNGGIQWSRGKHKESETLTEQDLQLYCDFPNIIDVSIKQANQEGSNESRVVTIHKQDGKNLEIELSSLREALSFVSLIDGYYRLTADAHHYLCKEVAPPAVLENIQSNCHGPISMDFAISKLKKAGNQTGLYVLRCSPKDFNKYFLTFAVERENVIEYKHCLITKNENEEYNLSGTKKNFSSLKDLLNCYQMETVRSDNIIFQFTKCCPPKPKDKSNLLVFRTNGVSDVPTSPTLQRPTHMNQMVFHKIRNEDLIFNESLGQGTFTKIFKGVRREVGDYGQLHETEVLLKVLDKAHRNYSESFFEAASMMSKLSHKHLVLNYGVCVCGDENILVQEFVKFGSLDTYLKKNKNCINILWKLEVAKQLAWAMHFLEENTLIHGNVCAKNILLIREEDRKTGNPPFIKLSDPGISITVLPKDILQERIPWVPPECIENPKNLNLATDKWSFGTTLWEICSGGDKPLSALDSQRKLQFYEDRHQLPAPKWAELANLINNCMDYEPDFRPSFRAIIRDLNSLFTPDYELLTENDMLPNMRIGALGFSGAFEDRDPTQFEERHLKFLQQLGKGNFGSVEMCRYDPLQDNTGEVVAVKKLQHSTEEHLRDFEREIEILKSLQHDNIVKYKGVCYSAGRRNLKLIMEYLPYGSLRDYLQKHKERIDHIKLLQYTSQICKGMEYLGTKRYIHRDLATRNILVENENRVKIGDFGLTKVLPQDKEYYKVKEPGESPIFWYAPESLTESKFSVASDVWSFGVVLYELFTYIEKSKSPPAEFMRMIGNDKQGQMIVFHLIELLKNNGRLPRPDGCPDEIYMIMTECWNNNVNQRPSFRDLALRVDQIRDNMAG
T1 sequence (P23458 whole entry): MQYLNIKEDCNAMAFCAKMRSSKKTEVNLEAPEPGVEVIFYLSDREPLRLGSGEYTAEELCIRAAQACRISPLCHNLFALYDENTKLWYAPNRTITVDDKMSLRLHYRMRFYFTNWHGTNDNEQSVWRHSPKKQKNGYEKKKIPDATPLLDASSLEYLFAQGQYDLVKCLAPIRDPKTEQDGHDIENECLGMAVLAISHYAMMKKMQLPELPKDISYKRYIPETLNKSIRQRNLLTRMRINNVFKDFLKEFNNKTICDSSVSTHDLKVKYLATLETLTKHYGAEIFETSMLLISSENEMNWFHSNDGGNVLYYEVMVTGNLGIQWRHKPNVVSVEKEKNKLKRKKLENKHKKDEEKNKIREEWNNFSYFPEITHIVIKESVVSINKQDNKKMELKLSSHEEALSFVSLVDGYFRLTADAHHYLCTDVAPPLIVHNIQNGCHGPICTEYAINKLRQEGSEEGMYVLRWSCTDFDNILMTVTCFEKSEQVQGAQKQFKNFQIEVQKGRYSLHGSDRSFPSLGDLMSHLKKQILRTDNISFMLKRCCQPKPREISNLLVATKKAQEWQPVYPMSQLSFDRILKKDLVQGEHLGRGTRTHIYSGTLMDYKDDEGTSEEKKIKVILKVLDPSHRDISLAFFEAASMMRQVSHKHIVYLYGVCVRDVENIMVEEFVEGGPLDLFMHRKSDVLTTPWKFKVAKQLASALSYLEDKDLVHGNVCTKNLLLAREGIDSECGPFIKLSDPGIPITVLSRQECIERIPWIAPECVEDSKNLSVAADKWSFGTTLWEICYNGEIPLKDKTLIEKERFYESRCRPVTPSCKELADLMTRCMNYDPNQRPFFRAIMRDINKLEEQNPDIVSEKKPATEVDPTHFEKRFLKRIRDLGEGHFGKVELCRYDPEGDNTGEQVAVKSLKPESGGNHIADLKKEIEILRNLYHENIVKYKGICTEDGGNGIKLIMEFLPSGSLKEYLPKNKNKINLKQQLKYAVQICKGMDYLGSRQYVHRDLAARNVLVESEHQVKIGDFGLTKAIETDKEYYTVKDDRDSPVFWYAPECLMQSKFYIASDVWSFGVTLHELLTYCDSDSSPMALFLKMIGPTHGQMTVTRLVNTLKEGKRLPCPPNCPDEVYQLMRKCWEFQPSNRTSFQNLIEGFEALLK

Row | Structure (SMILES) | IC50 [1] | IC50 [2] | IC50 [3] | IC50 [4]
1 | Cn1cc(-c2cc3nccn3c(-c3cnn(C(CC#N)C4CC4(F)F)c3)n2)cn1 (mixture of isomers) [Example 147, 3-(2,2-difluorocyclopropyl)-3-(4-(7-(1-methyl-1H-pyrazol-4-yl)imidazo[1,2-c]pyrimidin-5-yl)-1H-pyrazol-1-yl)propanenitrile] | 0.01 to 0.1 µM | < 0.01 µM | 0.1 to 1 µM | 0.01 to 0.1 µM
2 | CN1CCC(c2ccc(-c3cc4nccn4c(-c4cnn(C(CC#N)C5CCCC5)c4)n3)cc2)CC1 (single isomer, unassigned) [Example 111, 3-cyclopentyl-3-(4-(7-(4-(1-methylpiperidin-4-yl)phenyl)imidazo[1,2-c]pyrimidin-5-yl)-1H-pyrazol-1-yl)propanenitrile] | 0.1 to 1 µM | 0.01 to 0.1 µM | 0.1 to 1 µM | 0.1 to 1 µM
3 | CN1CCC(c2ccc(-c3cc4nccn4c(-c4cnn(C(CC#N)C5CCCC5)c4)n3)cc2)CC1 (single isomer, unassigned) [Example 112, 3-cyclopentyl-3-(4-(7-(4-(1-methylpiperidin-4-yl)phenyl)imidazo[1,2-c]pyrimidin-5-yl)-1H-pyrazol-1-yl)propanenitrile] | 0.01 to 0.1 µM | < 0.01 µM | 0.1 to 1 µM | 0.01 to 0.1 µM
4 | N#CCC(C1CCCC1)n1cc(-c2nc(-c3ccc(N4CCOCC4)cc3)cc3nccn23)cn1 (single isomer, unassigned) [Example 114, 3-cyclopentyl-3-(4-(7-(4-morpholinophenyl)imidazo[1,2-c]pyrimidin-5-yl)-1H-pyrazol-1-yl)propanenitrile] | 0.1 to 1 µM | < 0.01 µM | 0.1 to 1 µM | 0.01 to 0.1 µM
5 | N#CCC(C1CCCC1)n1cc(-c2nc(-c3ccc(N4CCOCC4)cc3)cc3nccn23)cn1 (single isomer, unassigned) [Example 115, 3-cyclopentyl-3-(4-(7-(4-morpholinophenyl)imidazo[1,2-c]pyrimidin-5-yl)-1H-pyrazol-1-yl)propanenitrile] | < 0.01 µM | < 0.01 µM | 0.1 to 1 µM | < 0.01 µM
6 | Cn1cc(-c2cc3nccn3c(-c3cnn(C(CC#N)C4CC4)c3)n2)cn1 (single isomer, unassigned; enantiomer 1) [Example 3, Enantiomer 1 of 3-cyclopropyl-3-(4-(7-(1-methyl-1H-pyrazol-4-yl)imidazo[1,2-c]pyrimidin-5-yl)-1H-pyrazol-1-yl)propanenitrile (Peak 1)] | 0.1 to 1 µM | 0.01 to 0.1 µM | 0.1 to 1 µM | 0.1 to 1 µM
7 | Cn1cc(-c2cc3nccn3c(-c3cnn(C(CC#N)C4CC4)c3)n2)cn1 (single isomer, unassigned; enantiomer 2) [Example 4, Enantiomer 2 of 3-cyclopropyl-3-(4-(7-(1-methyl-1H-pyrazol-4-yl)imidazo[1,2-c]pyrimidin-5-yl)-1H-pyrazol-1-yl)propanenitrile (Peak 2)] | 0.01 to 0.1 µM | < 0.01 µM | 0.1 to 1 µM | 0.01 to 0.1 µM
8 | Cn1cc(-c2cc3nccn3c(-c3cnn(C(CC#N)CC#N)c3)n2)cn1 [Example 1, 3-(4-(7-(1-methyl-1H-pyrazol-4-yl)imidazo[1,2-c]pyrimidin-5-yl)-1H-pyrazol-1-yl)pentanedinitrile] | 0.01 to 0.1 µM | < 0.01 µM | 0.1 to 1 µM | 0.01 to 0.1 µM
9 | Cn1cc(-c2cc3nccn3c(-c3cnn(C(CC#N)C4CC4)c3)n2)cn1 (stereo not drawn) [Example 2, 3-Cyclopropyl-3-(4-(7-(1-methyl-1H-pyrazol-4-yl)imidazo[1,2-c]pyrimidin-5-yl)-1H-pyrazol-1-yl)propanenitrile] | 0.1 to 1 µM | < 0.01 µM | > 1 µM | 0.01 to 0.1 µM
10 | Cn1cc(-c2cc3nccn3c(-c3cnn(C(CC#N)CC(C)(C)C)c3)n2)cn1 (stereo not drawn) [Example 5] | 0.1 to 1 µM | 0.01 to 0.1 µM | > 1 µM | 0.1 to 1 µM
11 | Cn1cc(-c2cc3nccn3c(-c3cnn(C(CC#N)c4ccccn4)c3)n2)cn1 (stereo not drawn) [Example 6, 3-(4-(7-(1-methyl-1H-pyrazol-4-yl)imidazo[1,2-c]pyrimidin-5-yl)-1H-pyrazol-1-yl)-3-(pyridin-2-yl)propanenitrile] | 0.1 to 1 µM | 0.01 to 0.1 µM | > 1 µM | 0.01 to 0.1 µM
12 | Cn1cc(-c2cc3nccn3c(-c3cnn(C(CC#N)c4cccnc4)c3)n2)cn1 (stereo not drawn) [Example 7, 3-(4-(7-(1-methyl-1H-pyrazol-4-yl)imidazo[1,2-c]pyrimidin-5-yl)-1H-pyrazol-1-yl)-3-(pyridin-3-yl)propanenitrile] | 0.01 to 0.1 µM | < 0.01 µM | 0.1 to 1 µM | 0.01 to 0.1 µM
